Experiment: Maxima of UV-A and UV-B absorption of quinoxaline derivatives in 2-propanol
Assay type: physicochemical
Conditions: 1 mg of substance per 100 ml of solvent; for UV-A (400 320 nm) Max. abs.: absorbance at UV-A maximum; for UV-A (400 320 nm) λ [nm]: wavelength of UV-A maximum
Experimental: The measurement was carried out in 2-propanol at a concentration of 1 mg of substance per 100 ml of solvent.

| UV-A (400 320 nm) Max. abs. | UV-A (400 320 nm) λ [nm] | Structure (SMILES) |
| --- | --- | --- |
| 0.132 | 344.6 | Fc1ccc2nc3nc4ccccc4nc3n2c1 |
| 0.413 | 378.0 | CN(C)c1cnc2ccccc2n1 |

Source: patent US20030207886A1, “Preparation containing quinoxaline derivatives” (priority 2000, published 2003)
